Laboratory results from ChEMBL document CHEMBL1165964, “Design and synthesis of spirotryprostatin-inspired diketopiperazine systems from prolyl spirooxoindolethiazolidine derivatives” (Bioorg Med Chem, 2010).
Activity calls are given as the source filed them. The calls are words filed in the database; no cut-off is given here.

Tests used:
Type in all cases: functional, cell-based
[1] = system: MCF7; experiment: Cytotoxicity against human MCF7 cells after 48 hrs by MTT assay; settings: MCF7, 48 h
[2] = Cell cycle arrest in mouse tsFT210 cells assessed as accumulation of cells at G2/M phase
[3] = system: MCF7; experiment: Cell cycle arrest in human MCF7 cells
[4] = system: MCF7; experiment: Cytotoxicity against human MCF7 cells at 100 uM after 48 hrs by MTT assay
[5] = system: T47D; experiment: Cytotoxicity against human T47D cells at 100 uM after 48 hrs by MTT assay
[6] = system: A-431; experiment: Cytotoxicity against human A431 cells at 100 uM after 48 hrs by MTT assay

**Q.** For `CCOC(=O)[C@@]1(c2ccccc2N)SC[C@H]2C(=O)N3CCC[C@H]3C(=O)N21`, which IC50 [1] is on record?
**A.** The IC50 was 14.8 µM.

**Q.** With `COc1ccc2c(c1)NC(=O)[C@@]21C[C@H]2C(=O)N3CCC[C@H]3C(=O)N2[C@H]1C=C(C)C` [SPIROTRYPROSTATIN A] as the molecule, how does the IC50 [2] read?
**A.** The IC50 was 198 µM.

**Q.** With `Cc1ccc2c(c1)[C@]1(SC[C@H]3C(=O)N4CCC[C@H]4C(=O)N31)C(=O)N2` as the molecule, how does the Activity [3] read?
**A.** The Activity was “inactive”.

**Q.** What about the Activity [4] of the same molecule?
**A.** Its Activity is “inactive”.

**Q.** What about the Activity [5] of the same molecule?
**A.** Its Activity is “inactive”.

**Q.** And the Activity [6]?
**A.** The Activity was “inactive”.

**Q.** With `O=C1[C@@H]2CS[C@@]3(C(=O)Nc4ccc(Br)cc43)N2C(=O)[C@@H]2CCCN12` as the molecule, how does the Activity [3] read?
**A.** The Activity was “inactive”.

**Q.** What about the Activity [4] of the same molecule?
**A.** The Activity was “inactive”.

**Q.** And the Activity [5]?
**A.** The Activity was “inactive”.

**Q.** What about the Activity [6] of the same molecule?
**A.** The Activity was “inactive”.

**Q.** Which Activity [3] does the source give for `CN1C(=O)[C@]2(SC[C@H]3C(=O)N4CCC[C@H]4C(=O)N32)c2ccccc21` here?
**A.** The Activity was “inactive”.

**Q.** And the Activity [4]?
**A.** Its Activity is “inactive”.

**Q.** And the Activity [5]?
**A.** The Activity was “inactive”.

**Q.** What about the Activity [6] of the same molecule?
**A.** Its Activity is “inactive”.

**Q.** For `Cc1ccc2c(c1)[C@@]1(SC[C@H]3C(=O)N4CCC[C@H]4C(=O)N31)C(=O)N2`, which Activity [3] is on record?
**A.** Its Activity is “inactive”.

**Q.** What about the Activity [4] of the same molecule?
**A.** The Activity was “inactive”.

**Q.** And the Activity [5]?
**A.** Its Activity is “inactive”.

**Q.** And the Activity [6]?
**A.** The Activity was “inactive”.

**Q.** What does the source list for `O=C1[C@@H]2CS[C@]3(C(=O)Nc4ccc(Br)cc43)N2C(=O)[C@@H]2CCCN12`?
**A.** Activity [3]: inactive; Activity [4]: inactive; Activity [5]: inactive; Activity [6]: inactive

**Q.** What does the source list for `CN1C(=O)[C@@]2(SC[C@H]3C(=O)N4CCC[C@H]4C(=O)N32)c2ccccc21`?
**A.** Activity [3]: inactive; Activity [4]: inactive; Activity [5]: inactive; Activity [6]: inactive

**Q.** Which IC50 [1] does the source give for `CCOC(=O)[C@@]1(c2cc(C)ccc2N)SC[C@H]2C(=O)N3CCC[C@H]3C(=O)N21` here?
**A.** The IC50 was 1.6 µM.

**Q.** Which IC50 [1] does the source give for `CCOC(=O)[C@@]1(c2cc(Br)ccc2N)SC[C@H]2C(=O)N3CCC[C@H]3C(=O)N21` here?
**A.** The IC50 was 2.2 µM.

**Q.** Which Activity [3] does the source give for `O=C1[C@@H]2CS[C@@]3(C(=O)Nc4ccccc43)N2C(=O)[C@@H]2CCCN12` here?
**A.** Its Activity is “inactive”.

**Q.** What about the Activity [4] of the same molecule?
**A.** Its Activity is “inactive”.

**Q.** And the Activity [5]?
**A.** The Activity was “inactive”.

**Q.** What about the Activity [6] of the same molecule?
**A.** Its Activity is “inactive”.

**Q.** Which Activity [3] does the source give for `O=C1[C@@H]2CS[C@]3(C(=O)Nc4ccccc43)N2C(=O)[C@@H]2CCCN12` here?
**A.** Its Activity is “inactive”.

**Q.** What about the Activity [4] of the same molecule?
**A.** The Activity was “inactive”.

**Q.** And the Activity [5]?
**A.** Its Activity is “inactive”.

**Q.** And the Activity [6]?
**A.** Its Activity is “inactive”.
